For the compound `CN1CCN(c2ccccc2C=C2SCCN(Cc3ccc(Cl)c(Cl)c3)C2=O)CC1.Cl.O.O` (hydrate or solvate), the melting point fell in the range of 90 to 115 °C. As to `CN1CCN(c2ccccc2C=C2SC(=O)N(c3ccc(C(F)(F)F)cc3)C2=O)CC1.Cl.O.O` (hydrate or solvate), the melting point was 159 to 177 °C.

As to `CN1CCN(c2ccccc2C=C2SCCN(c3ccc(C(F)(F)F)cc3)C2=O)CC1.Cl.O.O.O` (hydrate or solvate), the melting point was in the range of 128 to 134 °C. Take `CN1CCN(c2ccccc2C=C2NC(=O)N(c3ccc(Cl)cc3)C2=O)CC1` [Example 2, 3-(4-Chlorophenyl)-5-[2-(4-methylpiperazin-1-yl)-benzylidene]-imidazolidine-2,4-dione]: the melting point was in the range of 193 to 193.5 °C. Consider `CN1CCN(c2ccccc2C=C2SCCN(Cc3ccccc3)C2=O)CC1` [Example 4, 4-Benzyl-2-[2-(4-methylpiperazin-1-yl)-benzylidene]-thiomorpholin-3-one], for which the melting point lay in the range of 106 to 108 °C. As to `CN1CCN(c2ccccc2C=C2SCCNC2=O)CC1` [Example 10, 2-[2-(4-Methylpiperazin-1-yl)-benzylidene]-thiomorpholin-3-one], the melting point lay in the range of 133 to 135 °C. In turn, `CN1CCN(c2cccc(F)c2C=C2SCCN(c3ccc(Cl)c(Cl)c3)C2=O)CC1` [Example 11, 4-(3,4-Dichlorophenyl)-2-[2-fluoro-6-(4-methylpiperazin-1-yl)-benzylidene]-thiomorpholin-3-one] displayed a melting point of 146 to 147 °C. The figure for `CN1CCN(c2ccccc2C=C2OCCN(c3ccc(Cl)c(Cl)c3)C2=O)CC1` [Example 12, 4-(3,4-Dichlorophenyl)-2-[2-(4-methylpiperazin-1-yl)-benzylidene]-morpholin-3-one] is 169 to 171 °C (dec.).

The record behind these values is US6423708B1, “Aralkyl and aralkylidene heterocyclic lactams and imides” (Pfizer INC, priority 1996, dated 2002).
